Laboratory results taken from PMC8659243, “Design, Synthesis and Tumour-Selective Toxicity of Novel 1-[3-{3,5-Bis(benzylidene)-4-oxo-1-piperidino}-3-oxopropyl]-4-piperidone Oximes and Related Quaternary Ammonium Salts” (Molecules, 2021).
Counter-ions that a name gives are not always drawn.

Tests used:
All Cell Lines = assay: NCI in vitro screen, all cell lines; format: cell-based; conditions: Homo sapiens
From the text: (§1) One particular reference drug is 5-fluorouracil, which is used in treating colon cancers.

HL-60 (TB) cells = assay: NCI in vitro screen, leukemia HL-60 (TB); format: cell-based; conditions: Homo sapiens
From the text: (§2) In view of the encouraging result with CEM leukemic cells, consideration was given to an assessment in the NCI in vitro screening program. The oximes, but not the quaternary ammonium salts, were accepted for bioevaluation. Examination of the mean graphs confirms the sensitivity of leukemic cells to these compounds.

[1] = test system: CEM T-lymphoblastic leukemia cells; assay: Cytotoxicity against CEM cells, MTT method, 24 h; format: cell-based; conditions: Homo sapiens, CCRF-CEM, concentration required to inhibit cell growth by 50%
Experimental: The method used for the evaluation of various compounds against human CEM cells has been reported previously. In brief, cells were grown in RPMI-1640 medium supplemented with 10% heat-inactivated fetal bovine serum. Different concentrations of compounds were added to the media, and after 24 h incubation, cytotoxicity was measured by the MTT method.

HSC-4 cells = assay: Cytotoxicity against HSC-4 cells, MTT method, 48 h; format: cell-based, human; conditions: for CC50: Homo sapiens, HSC-4, concentration required to kill 50% of the cells, 48 h, MTT, read-out: CC50 HSC-4; for SI HSC-4: average CC50 towards HGF, HPLF, HPC divided by CC50 against HSC-4
Experimental: (§3) A literature procedure was followed when the compounds in series 3 and 4 were evaluated against three human oral squamous cell carcinoma cell lines Ca9-22 (RCB-1976), HSC-2 (RCB1945), HSC-4 (RCB1902) (purchased from RIKEN Cell Bank, Tukuba, Japan) and three human normal oral cells, gingival fibroblast (HGF), periodontal ligament fibroblast (HPLF) and pulp cells (HPC) (established according to the guideline of the intramural ethic committee, A0808) except the duration of incubation was increased from 24 h to 48 h. In brief, various concentrations of the compounds were added to the DMEM media, which was supplemented by 10% heat-inactivated fetal bovine serum. Incubation was undertaken at 37 °C. At the completion of the experiment, cell viability was determined by the MTT method.

[2] = Cytotoxicity against non-malignant HPLF cells, MTT method, 48 h; format: cell-based; conditions: human, periodontal ligament fibroblasts (HPLF)
Experimental: as §3

[3] = test system: Ca9-22, HSC-2 and HSC-4 cells; assay: Average over Ca9-22, HSC-2 and HSC-4 neoplastic cells; format: cell-based, human; conditions: for CC50: Homo sapiens, average of Ca9-22, HSC-2 and HSC-4, read-out: Average CC50; for Average SI: average of SI for Ca9-22, HSC-2 and HSC-4
Experimental: In order to assess whether the compounds in series 3 and 4 are more toxic to neoplasms than non-malignant cells, selective index (SI) figures were calculated. In the in vivo situation, a tumour is surrounded by a number of non-malignant cells.
In order to identify the most promising lead compounds in terms of both cytotoxic potencies and favourable SI values, potency–selectivity expression (PSE) values were computed. […] Outstanding results may be noted for four compounds that have PSE values in excess of 100,000 namely 3d, 4c–e. […] However, the relative SI/PSE distribution patterns between series 3 and 4 (from a to h) are nearly superimposable with each other (Figure 3). […] It has been reported that 3,5-bis(3-iodo-5-methoxy-4-propoxybenzylidene)-N-acetylpiperidin-4-one inhibited tubulin and destabilization of microtubules, while 3,5-bis(3,4,5-trimethoxybenzylidene)-N-benzoylpiperidin-4-one destabilizes the microtubules. Thus, it remained to investigate whether compound 4d acts as an inhibitor of the microtubule.
as §3

Molt-4 cells = assay: NCI in vitro screen, leukemia Molt-4; format: cell-based; conditions: Homo sapiens
From the text: as §2

colon cancer cells = assay: NCI in vitro screen, average of colon cancer cells; format: cell-based; conditions: Homo sapiens
From the text: as §1

HT29 cells = assay: NCI in vitro screen, colon cancer HT29; format: cell-based; conditions: Homo sapiens, HT-29
From the text: as §1

Colo205 cells = assay: NCI in vitro screen, colon cancer Colo205; format: cell-based; conditions: Homo sapiens, COLO 205
From the text: as §1

leukemia cells = assay: NCI in vitro screen, average of leukemia cells; format: cell-based; conditions: Homo sapiens
From the text: as §2

HCC-2998 cells = assay: NCI in vitro screen, colon cancer HCC-2998; format: cell-based; conditions: Homo sapiens
From the text: as §1

SR cells = assay: NCI in vitro screen, leukemia SR; format: cell-based; conditions: Homo sapiens
From the text: as §2

HSC-2 cells = assay: Cytotoxicity against HSC-2 cells, MTT method, 48 h; format: cell-based, human; conditions: for CC50: Homo sapiens, HSC-2, concentration required to kill 50% of the cells, 48 h, MTT; for SI HSC-2: average CC50 towards HGF, HPLF, HPC divided by CC50 against HSC-2
Experimental: as §3

HCT-116 cells = assay: NCI in vitro screen, colon cancer HCT-116; format: cell-based; conditions: Homo sapiens
From the text: as §1

Ca9-22 cells = assay: Cytotoxicity against Ca9-22 cells, MTT method, 48 h; format: cell-based, human; conditions: for CC50: Homo sapiens, Ca9-22, concentration required to kill 50% of the cells, 48 h, MTT, read-out: CC50 Ca9-22; for SI Ca9-22: average CC50 towards HGF, HPLF, HPC divided by CC50 against Ca9-22
Experimental: as §3

K-562 cells = assay: NCI in vitro screen, leukemia K-562; format: cell-based; conditions: Homo sapiens, K562
From the text: as §2

[4] = Average over HGF, HPLF and HPC non-malignant cells; format: cell-based; conditions: human, HPLF and HPC non-malignant cells (average of the three)
Experimental: as §3

SW-620 cells = assay: NCI in vitro screen, colon cancer SW-620; format: cell-based; conditions: Homo sapiens
From the text: as §1

HCT-15 cells = assay: NCI in vitro screen, colon cancer HCT-15; format: cell-based; conditions: Homo sapiens
From the text: as §1

[5] = Cytotoxicity against non-malignant HPC cells, MTT method, 48 h; format: cell-based; conditions: human, pulp cells (HPC)
Experimental: as §3

RPMI-8226 cells = assay: NCI in vitro screen, leukemia RPMI-8226; format: cell-based; conditions: Homo sapiens
From the text: as §2

[6] = Cytotoxicity against non-malignant HGF cells, MTT method, 48 h; format: cell-based; conditions: human, gingival fibroblasts (HGF)
Experimental: as §3

KM12 cells = assay: NCI in vitro screen, colon cancer KM12; format: cell-based; conditions: Homo sapiens
From the text: as §1

SMILES	IC50 (All Cell Lines) [nM]	IC50 (HL-60 (TB) cells) [nM]	IC50 [1] [nM]	CC50 (HSC-4 cells) [nM]	SI HSC-4 (HSC-4 cells)	CC50 at 48 h [2] [nM]	CC50 [3] [nM]	Average SI [3]	IC50 (Molt-4 cells) [nM]	IC50 (colon cancer cells) [nM]	IC50 (HT29 cells) [nM]	IC50 (Colo205 cells) [nM]	IC50 (leukemia cells) [nM]	IC50 (HCC-2998 cells) [nM]	IC50 (SR cells) [nM]	CC50 (HSC-2 cells) [nM]	SI HSC-2 (HSC-2 cells)	IC50 (HCT-116 cells) [nM]	CC50 (Ca9-22 cells) [nM]	SI Ca9-22 (Ca9-22 cells)	also measured
O=C1/C(=C/c2ccc(F)cc2)CN(C(=O)CCN2CCC(=NO)CC2)C/C1=C\c1ccc(F)cc1 [Compound 3b, (3~{E},5~{E})-3,5-bis[(4-fluorophenyl)methylene]-1-[3-(4-hydroximino-1-piperidyl)propanoyl]piperidin-4-one hydrochloride]	1150	1550	1780 ± 210	200 ± 80	52.0	9730 ± 230	430	31.5	330	610	320	1500	520	1410	250	730 ± 130	14.3	220	370 ± 190	28.1	IC50 (K-562 cells): 350 nM; CC50 at 48 h [4]: 10400 nM; IC50 (SW-620 cells): 200 nM; IC50 (HCT-15 cells): 370 nM; CC50 at 48 h [5]: 14200 ± 2000 nM; IC50 (RPMI-8226 cells): 290 nM; CC50 at 48 h [6]: 7120 ± 40 nM; IC50 (KM12 cells): 230 nM
O=C1/C(=C/c2ccc(Cl)c(Cl)c2)CN(C(=O)CCN2CCC(=NO)CC2)C/C1=C\c1ccc(Cl)c(Cl)c1 [Compound 3d, (3~{E},5~{E})-3,5-bis[(3,4-dichlorophenyl)methylene]-1-[3-(4-hydroximino-1-piperidyl)propanoyl]piperidin-4-one hydrochloride]	1300	1000	8490 ± 340	70	51.3	3900 ± 1420	60	89.1	320	310	320	390	370	360	100	100 ± 20	35.9	320	20 ± 10	180	IC50 (K-562 cells): 250 nM; CC50 at 48 h [4]: 3590 nM; IC50 (SW-620 cells): 230 nM; IC50 (HCT-15 cells): 270 nM; CC50 at 48 h [5]: 4970 ± 890 nM; IC50 (RPMI-8226 cells): 230 nM; CC50 at 48 h [6]: 1910 ± 220 nM; IC50 (KM12 cells): 250 nM
Cc1ccc(/C=C2\CN(C(=O)CCN3CCC(=NO)CC3)C/C(=C\c3ccc(C)cc3)C2=O)cc1 [Compound 3f, (3~{E},5~{E})-3,5-bis[(4-methylphenyl)methylene]-1-[3-(4-hydroximino-1-piperidyl)propanoyl]piperidin-4-one hydrochloride]	1230	1700	8420 ± 1100	430 ± 120	16.7	8000 ± 200	550	13.9	370	650	350	1150	550	1580	310	750 ± 40	9.57	360	470 ± 40	15.3	IC50 (K-562 cells): 320 nM; CC50 at 48 h [4]: 7180 nM; IC50 (SW-620 cells): 290 nM; IC50 (HCT-15 cells): 550 nM; CC50 at 48 h [5]: 7850 ± 7100 nM; IC50 (RPMI-8226 cells): 300 nM; CC50 at 48 h [6]: 5700 ± 650 nM; IC50 (KM12 cells): 280 nM
COc1ccc(/C=C2\CN(C(=O)CCN3CCC(=NO)CC3)C/C(=C\c3ccc(OC)cc3)C2=O)cc1 [Compound 3g, (3~{E},5~{E})-3,5-bis[(4-methoxyphenyl)methylene]-1-[3-(4-hydroximino-1-piperidyl)propanoyl]piperidin-4-one hydrochloride]	1280	2820	4350 ± 200	650 ± 20	16.6	12100 ± 1790	930	13.9	2950	1840	2040	2040	1880	1860	620	1560 ± 550	6.92	1740	590 ± 60	18.3	IC50 (K-562 cells): 1200 nM; CC50 at 48 h [4]: 10800 nM; IC50 (SW-620 cells): 1380 nM; IC50 (HCT-15 cells): 2140 nM; CC50 at 48 h [5]: 13600 ± 600 nM; IC50 (RPMI-8226 cells): 650 nM; CC50 at 48 h [6]: 6630 ± 60 nM; IC50 (KM12 cells): 1740 nM
